Source: ChEMBL document CHEMBL1147743, “The first potent inhibitors for human glutaminyl cyclase: synthesis and structure-activity relationship” (J Med Chem, 2006)

Target: Glutaminyl-peptide cyclotransferase (Homo sapiens, UniProt Q16769)
Experiment: Inhibitory activity against human glutaminyl cyclase

Chain of Glutaminyl-peptide cyclotransferase (Q16769 whole entry): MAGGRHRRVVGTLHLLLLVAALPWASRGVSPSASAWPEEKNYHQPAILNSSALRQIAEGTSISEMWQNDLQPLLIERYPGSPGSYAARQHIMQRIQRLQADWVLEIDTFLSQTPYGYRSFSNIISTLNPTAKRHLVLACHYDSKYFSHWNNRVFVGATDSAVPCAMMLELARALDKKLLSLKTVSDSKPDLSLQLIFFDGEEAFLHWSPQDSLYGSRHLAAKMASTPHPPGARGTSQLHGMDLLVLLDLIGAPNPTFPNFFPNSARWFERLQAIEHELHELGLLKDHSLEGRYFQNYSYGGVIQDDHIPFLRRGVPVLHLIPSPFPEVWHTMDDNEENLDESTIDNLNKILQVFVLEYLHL

Row | Structure (SMILES) | Ki [nM]
1 | S=C(NCCCn1ccnc1)NC1CCCCC1 | 4700
2 | O=C1CNC(=S)N1CCCn1ccnc1 | 700
